Values after ≈ are worked out from the molar mass of the structure shown. Square brackets hold non-standard residues; d marks the D form. Ends that are not written are not given here. Peptide text beside a SMILES is read from it. * marks the point of attachment. Benzoyl(4-Me) = Cc1ccc(C(=O)*)cc1
What was measured:
[1] = tested on: B. subtilis BR151; format: cell-based, Bacillus subtilis; conditions: BR151, 20 h
Method: (§1) Bicyclic and linear peptides cytotoxicity was assayed against P. aeruginosa PAO1, P. aeruginosa ZEM-1A, P. aeruginosa ZEM9A, K. pneumoniae Oxa-48, E. coli W3110, A. baumannii BAL225, S. aureus Newman, S. aureus COL (clinical isolate of MRSA) , B. Subtilis BR151.
(§2) To determine the Minimal Inhibitory Concentration (MIC), Broth Microdilution method was used . 2 A colony of bacteria from glycerol stock was grown in LB medium overnight at 37 °C and 180 rpm shaking. The compounds were prepared as stock solutions of 8 mg/mL in sterilized milliQ deionized water, added to the first well of 96 -well sterile, polypropylene round bottom microtiter plates (TPP, untreated) and diluted serially by ½. The concentration of the bacteria was quantified by measuring absorbance at 600 nm and diluted to an OD 600 of 0.022 in MH medium. The sample solutions (150 µL) were mixed with 4 µL diluted bacterial suspension with a final inoculation of about 5×10^5 CFU.
For each test, two columns of the plate were kept for sterility control (MH medium only), growth control (MH medium with bacterial inoculum, no compound). The positive control, Polymyxin B (starting with a concentration of 64 µg/mL) in MH medium with bacterial inoculums, was introduced in the two first lines of the plate. […]
conditions. 15 μL of 3-(4,5-dimethylthiazol-2-yl)-2,5-diphenyltetrazolium bromide (MTT)3 (1 mg/mL in sterilized milliQ deionized water) were added to each well and the plates were incubated for 20-30 minutes at room temperature. The minimal inhibitory concentration (MIC) was defined as the lowest concentration of the dendrimer that inhibits the visible growth of the tested bacteria (yellow) with the unaided eye.

[2] = Lipid vesicle leakage assay, 5(6)-carboxyfluorescein release; conditions: 10 μg mL^−1 compound, leakage at 250 s; 10 mM TRIS, 107 mM NaCl, pH 7.4, 25 °C; carboxyfluorescein fluorescence, Triton X-100 = full release
Method: 4 Lipid Vesicle Leakage assays
5(6)-carboxyfluorescein (CF) was purchased from Sigma. Egg Yolk Phosphatidylcholine (EYPC),
Egg Yolk Phosphatidylglycerol (EYPG) and a Mini-Extruder were purchased from Avanti Polar
Lipids. Egg PC or Egg PG thin lipid layers were prepared by evaporating a solution of 100 mg EYPC
or EYPG in 4 mL MeOH/CHCl3 (1:1) on a rotary evaporator at room temperature and then dried in
vacuo overnight. The resulting film was then hydrated with 4 mL CF buffer (50 mM CF, 10 mM
TRIS, 107 mM NaCl, pH 7.4) for 30 min, subjected to freeze-thaw cycles (7×) and extrusion (15×)
through a polycarbonate membrane (pore size 100 nm). Extra vesicular components were removed
by gel filtration (Sephadex G-50) with 10 mM TRIS, 107 mM NaCl, pH 7.4 buffer. Final conditions:
~ 2.5 mM PC or PG; inside: 50 mM CF, 10 mM TRIS, 10 mM NaCl, pH 7.4 buffer; outside: 10 mM
TRIS, 107 mM NaCl, pH 7.4. PC or PG stock solutions (37.5 µL) were diluted to 3000 µL with a
buffer (10 mM TRIS, 107 mM NaCl, pH 7.4) in a thermostated fluorescence cuvette (25 °C) and
gently stirred (final lipid concentration ~31 µM). CF efflux was monitored at λem 517 nm (λex 492
nm) as a function of time after addition of the desired volume of peptide (1 or 20 mg/mL stock in mQ
water) at t = 45 s. The following final concentrations of peptide were monitored: 5, 10, 15, 20, 25 and
200 µg/mL. Finally, 30 µL of 1.2% Triton X -100 was added to the cuvette (0.012% final
concentration) at t = 285 s to reach the maximum intensity. Fluorescence intensities were then
Figure S1: Vesicle leakage experiments using 5(6)-carboxyfluorescein induced by peptides. EYPG and EYPC vesicles
were suspended in buffer (10 mM TRIS, 107 mM NaCl, pH 7.4) and the indicated concentration of the compound was
added after 45 sec. After 285 seconds 30 μL Triton X-100 1.2% was added for full release of fluorescein. […]

[3] = tested on: K. pneumoniae Oxa-48; format: cell-based
Method: as §1, §2
(§3) For each test, two columns of the plate were kept for sterility control (MH medium only), growth control (MH medium with bacterial inoculum, no compound). The positive control, Polymyxin B (starting with a concentration of 64 µg/mL) in MH medium with bacterial inoculums, was introduced in the two first lines of the plate. The plates were incubated at 37 °C for ~18 hours under static conditions. 15 μL of 3-(4,5-dimethylthiazol-2-yl)-2,5-diphenyltetrazolium bromide (MTT)3 (1 mg/mL in sterilized milliQ deionized water) were added to each well and the plates were incubated for 20-30 minutes at room temperature. The minimal inhibitory concentration (MIC) was defined as the lowest concentration of the dendrimer that inhibits the visible growth of the tested bacteria (yellow) with the unaided eye.

[4] = tested on: E. coli W3110; format: cell-based
Method: as §1, §2, §3

[5] = tested on: S. aureus Newman; format: cell-based
Method: as §1, §2, §3

[6] = tested on: S. aureus COL (clinical isolate of MRSA); format: cell-based
Method: as §1, §2, §3

[7] = tested on: A. baumannii BAL225; format: cell-based
Method: as §1, §2, §3

[8] = tested on: P. aeruginosa PAO1; format: cell-based, Pseudomonas aeruginosa
Method: as §1, §2, §3

[9] = tested on: P. aeruginosa ZEM-1A; format: cell-based, Pseudomonas aeruginosa
Method: as §1, §2, §3

[10] = tested on: P. aeruginosa ZEM9A; format: cell-based, Pseudomonas aeruginosa
Method: as §1, §2, §3

Compound	MIC BR 151 [1] [µg/mL]	EYPC vesicle leakage [2] [%]	EYPG vesicle leakage [2] [%]	MIC K. pneumoniae Oxa-48 [3] [µg/mL]	MIC E. coli W3110 [4] [µg/mL]	MIC S. aureus Newman [5] [µg/mL]	MIC S. aureus COL [6] [µg/mL]	MIC A. baumannii BAL225 [7] [µg/mL]	MIC PAO1 [8] [µg/mL]	MIC P. aeruginosa ZEM-1A [9] [µg/mL]	MIC P. aeruginosa ZEM9A [10] [µg/mL]
Cc1c2cc3cc1CSC[C@H](NC(=O)[C@H](CCCCN)NC(=O)[C@H](CC(C)C)NC(=O)[C@H](CC(C)C)NC(=O)[C@H](CCCCN)NC(=O)[C@H](CCCCN)NC3=O)C(=O)N[C@@H](CC(C)C)C(=O)N[C@@H](CCCCN)C(=O)N[C@H](C(=O)N[C@@H](CC(C)C)C(=O)N[C@@H](CC(C)C)C(N)=O)CSC2 [bp65] (HELM PEPTIDE1{K.K.L.L.K.C.L.K.C.L.L.[am]}|CHEM1{[Cc1c(C[*:2])cc(C(=O)[*:1])cc1C[*:3]]}$PEPTIDE1,CHEM1,1:R1-1:R1|PEPTIDE1,CHEM1,6:R3-1:R2|PEPTIDE1,CHEM1,9:R3-1:R3$$$V2.0)	2 (≈ 1.39 µM)	37	34	16 (≈ 11.1 µM)	8 (≈ 5.54 µM)	8 (≈ 5.54 µM)	8 (≈ 5.54 µM)	4 (≈ 2.77 µM)	8 (≈ 5.54 µM)	8 (≈ 5.54 µM)	>32
Cc1c2cc3cc1CSC[C@H](NC(=O)[C@@H](CCCCN)NC(=O)[C@H](CC(C)C)NC(=O)[C@H](CC(C)C)NC(=O)[C@@H](CCCCN)NC(=O)[C@@H](CCCCN)NC3=O)C(=O)N[C@@H](CC(C)C)C(=O)N[C@H](CCCCN)C(=O)N[C@H](C(=O)N[C@@H](CC(C)C)C(=O)N[C@@H](CC(C)C)C(N)=O)CSC2 [bp69] (HELM PEPTIDE1{[dK].[dK].L.L.[dK].C.L.[dK].C.L.L.[am]}|CHEM1{[Cc1c(C[*:2])cc(C(=O)[*:1])cc1C[*:3]]}$PEPTIDE1,CHEM1,1:R1-1:R1|PEPTIDE1,CHEM1,6:R3-1:R2|PEPTIDE1,CHEM1,9:R3-1:R3$$$V2.0)		57	48	16 (≈ 11.1 µM)	8 (≈ 5.54 µM)	2 to 4	4 (≈ 2.77 µM)	4 (≈ 2.77 µM)	16 (≈ 11.1 µM)	4 to 8	>32
CSC[C@H](NC(=O)[C@H](CCCCN)NC(=O)[C@H](CC(C)C)NC(=O)[C@H](CSC)NC(=O)[C@H](CCCCN)NC(=O)[C@H](CC(C)C)NC(=O)[C@H](CC(C)C)NC(=O)[C@H](CCCCN)NC(=O)[C@H](CCCCN)NC(=O)c1ccc(C)cc1)C(=O)N[C@@H](CC(C)C)C(=O)N[C@@H](CC(C)C)C(N)=O [ln65b] ({Benzoyl(4-Me)}-KKLLKC(Me)LKC(Me)LL-NH2)				8 (≈ 5.52 µM)	8 (≈ 5.52 µM)	4 (≈ 2.76 µM)	4 (≈ 2.76 µM)	4 (≈ 2.76 µM)	4 to 8	4 (≈ 2.76 µM)	16 (≈ 11 µM)
CC(C)C[C@H](NC(=O)[C@H](CC(C)C)NC(=O)[C@H](CC(C)C)NC(=O)[C@@H](CCCCN)NC(=O)[C@H](CC(C)C)NC(=O)[C@H](CC(C)C)NC(=O)[C@@H](CCCCN)NC(=O)[C@H](CC(C)C)NC(=O)[C@H](CC(C)C)NC(=O)[C@@H](CCCCN)NC(=O)[C@H](N)CCCCN)C(N)=O [ln69] (HELM PEPTIDE1{[dK].[dK].L.L.[dK].L.L.[dK].L.L.L.[am]}$$$$V2.0)				8 (≈ 6.05 µM)	4 (≈ 3.03 µM)	8 (≈ 6.05 µM)	16 (≈ 12.1 µM)	2 to 4	8 (≈ 6.05 µM)	8 (≈ 6.05 µM)	>32
CSC[C@H](NC(=O)[C@@H](CCCCN)NC(=O)[C@H](CC(C)C)NC(=O)[C@H](CSC)NC(=O)[C@@H](CCCCN)NC(=O)[C@H](CC(C)C)NC(=O)[C@H](CC(C)C)NC(=O)[C@@H](CCCCN)NC(=O)[C@@H](CCCCN)NC(=O)c1ccc(C)cc1)C(=O)N[C@@H](CC(C)C)C(=O)N[C@@H](CC(C)C)C(N)=O [ln69b] ({Benzoyl(4-Me)}-[dK][dK]LL[dK]C(Me)L[dK]C(Me)LL-NH2)				>32	8 (≈ 5.52 µM)	32 (≈ 22.1 µM)	32 (≈ 22.1 µM)	8 (≈ 5.52 µM)	16 (≈ 11 µM)	8 (≈ 5.52 µM)	>32
KKLLKLLKLLL-NH2 [ln65]				4	4	2 to 4	4	2 to 4	2 to 4	2 to 4	16
